{
  "source": "patent US4248864A",
  "about": "“Reproduction control” (American Home Products Corporation, priority 1979, dated 1981)",
  "key": {"[1]": {"system": "Female Charles River CD rats (pregnancy)", "experiment": "Single intravaginal or intrajugular administration on D5 of pregnancy", "format": "in vivo, rat", "conditions": "for Number of placental sites, left horn / Number of placental sites, right horn / Number of viable fetuses, left horn / Number of viable fetuses, right horn / Uterine weight, left horn / Uterine weight, right horn: 5 rats/group; for Uterine weight, left horn / Uterine weight, right horn: in g"}, "[2]": {"system": "Female Charles River CD rats (pregnancy)", "experiment": "Post-coital contraceptive effect in the rat: single intrauterine (right horn) administration on D5 of pregnancy", "format": "in vivo", "conditions": "for Number of placental sites, left horn / Number of placental sites, right horn (injected) / Number of viable fetuses, left horn / Number of viable fetuses, right horn (injected) / Uterine weight, left horn and contents / Uterine weight, right horn (injected) and contents: autopsy D20, 15 rats/group; for Uterine weight, left horn and contents / Uterine weight, right horn (injected) and contents: in g", "method": "Female Charles River CD® rats (200-210 g) were allowed to cohabit with proven males; the presence of sperm in the vaginal smear was considered day 1 (D1) of pregnancy. In order to lessen the problem of variability between experiments, 5 rats were autopsied at each dose level and the study replicated 3 times to accumulate a total of 15 rats in each experimental group. Luteinizing hormone-releasing hormone was dissolved in 2 μl of 0.9% NaCl and injected into the right horn of the uterus below the utero-tubal junction between 0945 and 1015 h on D5. One group of control animals received an intrauterine (IU) injection of 2 μl saline into the right horn on D5. The control animals were autopsied in groups of 5 rats and replicated 3 times to accumulate a total of 15 rats. On D20 the rats were sacrificed, and the uterine horns were divided and weighed individually. The number of viable fetuses as well as the number of placental sites in each horn was recorded. Fetuses from both horns, in control and experimental groups, were examined and weighed individually. A viable fetus is defined as one which compares in anatomical development and weight to a normal control fetus at D20 of gestation. Statistical analysis of the number of viable fetuses and placental sites in each horn was determined by the Kruwalc-Henderson method (Proc. Third Am. Conference of the SAS Users Group International, SAS Institute, Raleigh, North Carolina (1978)); uterine weights of each horn were subjected to analysis of variance (Conover, Practical Nonparametric Statistics, N.Y. John Wiley and Sons, Inc. page 256 (1979)).\nFollowing the same procedure, [D-Trp^6, des-Gly-NH2^10 ]LHRH ethylamide (a representative LHRH agonist analogue) was injected into the uterine lumen of the right uterine horn of female Charles River CD® rats on day 5 after coitus. The status of the pregnancy as indicated by viable fetuses was as follows: […]"}, "[3]": {"system": "pregnancy", "conditions": "cited from earlier work"}, "[4]": {"system": "zona pellucida of blastocyst", "experiment": "In vitro removal (lysis) of the zona pellucida of a blastocyst", "format": "cell-based", "description": "To denude a blastocyst of its zona pellucide in vitro the fertilized ovum is removed from the uterus of the donor animal by known means. The blastocyst is then placed in a small volume of known compatable medium such as physiological saline and LHRH or an agonist is introduced into the medium. The course of removal of the zona pellucida may be readily followed with a microscope and the time period necessary for complete removal of the zona is related to the concentration of the releasing hormone, thereby permitting timed blastocyst release during egg transplant procedures. At 500 μg/μl LHRH in 0.9 percent saline the zona pellucida lyses in about 0.5 minutes; at 50 μg/μl in about 15 to 25 minutes and at 15 μg/μl in about 60 minutes. Recovery of the free blastocyst and transfer to the uterus of a properly prepared and timed mammalion species may then be effected by conventional transfer techniques under optimal timing conditions of both the fertilized egg and the uterine epithelium."}, "[5]": {"conditions": "dose 1,000, single intrajugular (IV) D5"}, "[6]": {"conditions": "dose 1,000, single intravaginal (Vag) D5"}, "[7]": {"conditions": "100 μg intrauterine right horn D5"}, "[8]": {"conditions": "200 μg intrauterine right horn D5"}, "[9]": {"conditions": "300 μg intrauterine right horn D5"}, "[10]": {"conditions": "500 μg intrauterine right horn D5"}, "[11]": {"conditions": "1,000 μg intrauterine right horn D5"}, "[12]": {"conditions": "10 μg into right uterine horn day 5 after coitus, 4 rats"}, "[13]": {"conditions": "100 μg into right uterine horn day 5 after coitus, 5 rats"}, "[14]": {"conditions": "1,000 μg into right uterine horn day 5 after coitus, 4 rats"}},
  "note": "“And” between values parts separate entries of the source, which are not always exact repeats. Identical values can stand only once. “Also recorded” adds a separate entry of the source.",
  "data": [
    {"substance": "Luteinizing hormone releasing hormone [LHRH]", "values": [
      {"measurement": "Effect on pregnancy (viable fetuses, uterine weight, placental sites) in either horn", "setting": "[1]; 1000 μg via jugular vein or vagina on D5", "result": "failed to alter the pregnancy in either horn; also recorded: inactive; also recorded: no negative effects"},
      {"measurement": "Number of placental sites, left horn", "setting": "[1]; [5]", "result": "0.6±0.2"},
      {"measurement": "Number of placental sites, right horn", "setting": "[1]; [5]", "result": "0.2±0.2"},
      {"measurement": "Number of viable fetuses, left horn", "setting": "[1]; [5]", "result": "7.4±0.7"},
      {"measurement": "Number of viable fetuses, right horn", "setting": "[1]; [5]", "result": "5.4±1.0"},
      {"measurement": "Uterine weight, left horn", "setting": "[1]; [5]", "result": "26.3±3.0"},
      {"measurement": "Uterine weight, right horn", "setting": "[1]; [5]", "result": "18.2±3.9"},
      {"measurement": "Number of placental sites, left horn", "setting": "[1]; [6]", "result": "0.4±0.2"},
      {"measurement": "Number of placental sites, right horn", "setting": "[1]; [6]", "result": "0.2±0.2"},
      {"measurement": "Number of viable fetuses, left horn", "setting": "[1]; [6]", "result": "6.6±0.9"},
      {"measurement": "Number of viable fetuses, right horn", "setting": "[1]; [6]", "result": "7.4±0.8"},
      {"measurement": "Uterine weight, left horn", "setting": "[1]; [6]", "result": "20.5±2.9"},
      {"measurement": "Uterine weight, right horn", "setting": "[1]; [6]", "result": "21.4±2.0"},
      {"measurement": "Number of placental sites, left horn", "setting": "[2]; [7]", "result": "0.1 ± 0.1"},
      {"measurement": "Number of placental sites, right horn (injected)", "setting": "[2]; [7]", "result": "0.1 ± 0.1"},
      {"measurement": "Number of viable fetuses, left horn", "setting": "[2]; [7]", "result": "5.7 ± 0.4"},
      {"measurement": "Number of viable fetuses, right horn (injected)", "setting": "[2]; [7]", "result": "3.2 ± 0.3"},
      {"measurement": "Uterine weight, left horn and contents", "setting": "[2]; [7]", "result": "19.1 ± 1.5"},
      {"measurement": "Uterine weight, right horn (injected) and contents", "setting": "[2]; [7]", "result": "12.0 ± 1.0"},
      {"measurement": "Number of placental sites, left horn", "setting": "[2]; [8]", "result": "0.1 ± 0.1"},
      {"measurement": "Number of placental sites, right horn (injected)", "setting": "[2]; [8]", "result": "1.6 ± 0.5"},
      {"measurement": "Number of viable fetuses, left horn", "setting": "[2]; [8]", "result": "5.4 ± 0.8"},
      {"measurement": "Number of viable fetuses, right horn (injected)", "setting": "[2]; [8]", "result": "1.7 ± 0.4"},
      {"measurement": "Uterine weight, left horn and contents", "setting": "[2]; [8]", "result": "19.4 ± 2.7"},
      {"measurement": "Uterine weight, right horn (injected) and contents", "setting": "[2]; [8]", "result": "6.5 ± 1.3"},
      {"measurement": "Number of placental sites, left horn", "setting": "[2]; [9]", "result": "0.7 ± 0.6"},
      {"measurement": "Number of placental sites, right horn (injected)", "setting": "[2]; [9]", "result": "1.3 ± 0.3"},
      {"measurement": "Number of viable fetuses, left horn", "setting": "[2]; [9]", "result": "6.5 ± 0.6"},
      {"measurement": "Number of viable fetuses, right horn (injected)", "setting": "[2]; [9]", "result": "1.5 ± 0.4"},
      {"measurement": "Uterine weight, left horn and contents", "setting": "[2]; [9]", "result": "21.2 ± 2.3"},
      {"measurement": "Uterine weight, right horn (injected) and contents", "setting": "[2]; [9]", "result": "6.9 ± 1.6"},
      {"measurement": "Number of placental sites, left horn", "setting": "[2]; [10]", "result": "0.5 ± 0.3"},
      {"measurement": "Number of placental sites, right horn (injected)", "setting": "[2]; [10]", "result": "1.5 ± 0.7"},
      {"measurement": "Number of viable fetuses, left horn", "setting": "[2]; [10]", "result": "6.1 ± 0.7"},
      {"measurement": "Number of viable fetuses, right horn (injected)", "setting": "[2]; [10]", "result": "1.3 ± 0.3"},
      {"measurement": "Uterine weight, left horn and contents", "setting": "[2]; [10]", "result": "21.8 ± 2.0"},
      {"measurement": "Uterine weight, right horn (injected) and contents", "setting": "[2]; [10]", "result": "6.0 ± 0.9"},
      {"measurement": "Number of placental sites, left horn", "setting": "[2]; [11]", "result": "0.3 ± 0.2"},
      {"measurement": "Number of placental sites, right horn (injected)", "setting": "[2]; [11]", "result": "2.3 ± 0.6"},
      {"measurement": "Number of viable fetuses, left horn", "setting": "[2]; [11]", "result": "6.9 ± 0.7"},
      {"measurement": "Number of viable fetuses, right horn (injected)", "setting": "[2]; [11]", "result": "0.8 ± 0.2 and 0.8"},
      {"measurement": "Uterine weight, left horn and contents", "setting": "[2]; [11]", "result": "24.3 ± 2.5"},
      {"measurement": "Uterine weight, right horn (injected) and contents", "setting": "[2]; [11]", "result": "4.3 ± 0.8"},
      {"measurement": "Number of placental sites vs control", "setting": "[2]; 200-1000 μg intrauterine right horn D5", "result": "significant increase"},
      {"measurement": "Number of viable fetuses in the right horn vs control", "setting": "[2]; all doses (100-1,000 μg) intrauterine right horn D5", "result": "significant reduction"},
      {"measurement": "Single intra-uterine treatment dose sufficient to prevent pregnancy", "setting": "[2]", "result": "about 1,000 μg"},
      {"measurement": "Effect on number of viable fetuses or uterine weight", "setting": "[3]; 1000 μg injection (s.c.) on D5, Humphrey et al.", "result": "failed to alter"},
      {"measurement": "Effect on ensuing pregnancy", "setting": "[3]; acute subcutaneous injection of 5000 μg, Beattie and Corbin 1977", "result": "failed to inhibit the ensuing pregnancy"},
      {"measurement": "Time to lysis of the zona pellucida", "setting": "[4]; 15 μg/μl in 0.9 percent saline", "result": "about 60 minutes"},
      {"measurement": "Time to lysis of the zona pellucida", "setting": "[4]; 500 μg/μl in 0.9 percent saline", "result": "about 0.5 minutes"}
    ]},
    {"substance": "[D-Trp^6 -N-methyl-Leu^7 des-Gly NH2^10 ]LHRH ethylamide", "values": [
      {"measurement": "Single intra-uterine treatment dose sufficient to prevent pregnancy", "setting": "[2]", "result": 100, "unit": "µg"}
    ]},
    {"substance": "[D-Trp^6, des-Gly-NH2^10 ]LHRH ethylamide", "values": [
      {"measurement": "Viable Fetuses Mean, Left", "setting": "[2]; [12]", "result": 6.5},
      {"measurement": "Viable Fetuses Mean, Right", "setting": "[2]; [12]", "result": 3.8},
      {"measurement": "Viable Fetuses Mean, Left", "setting": "[2]; [13]", "result": 3.6},
      {"measurement": "Viable Fetuses Mean, Right", "setting": "[2]; [13]", "result": 0.4},
      {"measurement": "Viable Fetuses Mean, Left", "setting": "[2]; [14]", "result": 3.3},
      {"measurement": "Viable Fetuses Mean, Right", "setting": "[2]; [14]", "result": 0.5}
    ]}
  ]
}
